This is an account of results in patent publication US20030105034A1, “Pyridine carboxy derivatives and an aminosugar” (Astion Deveopment A/S, priority 2001, published 2003).

For test [1], the system named is tetradecanoyl phorbol acetate (TPA) induced ear inflammation. Briefly: TPA induced ear inflammation test in the mouse, two doses of two complexes (Example 239). The class given is in vivo. As to conditions: Locoid solution 0.1%, 0.02 mg per application; positive control; ears weighed 3 h after TPA. An excerpt: The objective of this study is to assess the effect of two doses of two chemical complexes of the invention topically administered in the tetradecanoyl phorbol acetate (TPA) induced ear inflammation test in the mouse, a commonly employed method for screening and evaluation of antiinflammatory drugs. Locoid® cutaneous solution (0.1% hydrocortisone 17-butyrate) is used as a positive control.
At start of the acclimatisation period the mice is in the weight range of 18-20 g. An acclimatisation period of 7 days is allowed.
On the day of arrival the animals is randomly allocated to 7 groups, each of 9 mice.
The test substances are applied in 20 μl volumes to the inner surface of the right ear on day 0. 20 minutes before and again 20 minutes after TPA treatment. All groups is treated with 20 μl acetone on the left ear and with 20 μl TPA, 400 μg/ml, on the right ear.
Three hours after the TPA application the mice are sacrificed, the ears cut off and weighed. Mean weights and standard deviations are calculated. Percent inhibition of the oedema compared with group 1 is calculated for the groups 2-7. Weights of the left ears is used to assess the comparability of the groups and to calculate differences in weight between left and right ear.

Test [2] has the same test system. The experiment in a line: TPA induced ear inflammation test in the mouse, Compound 122 compared to its components (Example 241). As to conditions: for Inhibition of ear swelling (%): versus vehicle group A, 3 h after TPA; for inhibition of ear swelling, result in words: Compound 122 7.0 mg, niacinamide 3.67 mg, N-acetylglucosamine 3.33 mg per application. The class given is in vivo. An excerpt: The objective of this study is to assess the effect of Compound 122 as compared to its components in the tetradecanoyl phorbol acetate (TPA) induced ear inflammation test in the mouse, a commonly employed method for screening and evaluation of antiinflammatory drugs. Locoid® cutaneous solution (0.1% hydrocortisone 17-butyrate) is used as a positive control.
The test articles are the complex of the invention prepared according to example 118 (Compound 122 in the following) and its components niacinamide and N-acetylglucosamine, all obtained from Astion A/S, Denmark.
The study is performed in female SPF NMRI mice of the stock Bom:NMRI from M & B A/S, Denmark. At start of the acclimatisation period the mice is in the weight range of 18-20 g. An acclimatisation period of 7 days is allowed.
On day 0 the test substances are applied in 20 μl volumes to the inner surface of the right ear 20 minutes before and again 20 minutes after TPA treatment. All groups are treated with 20 μl acetone on the left ear and with 20 μl TPA, 400 μg/ml, on the right ear.
Three hours after the TPA application the mice are sacrificed, the ears cut off and weighed.
The amount of niacinamide and N-acetylglucosamine administered to groups C and D corresponds exactly to the amount of the two substances present in Compound 122 administered to group B.
Mean weights and standard deviations are calculated. Percent inhibition of the oedema compared with group A is calculated for the groups B-E. Weights of the left ears are used to assess the comparability of the groups and to calculate differences in weight between left and right ear.
Ear swelling is determined as the difference between the weight of right and left ear. The following inhibition of ear swelling is observed in groups B-E: […]

Entries after “also recorded” stand apart in the source; their conditions may differ. Marks after values point to notes of the source that are not given here.

As for `CCCC(=O)O[C@]1(C(=O)CO)CC[C@H]2[C@@H]3CCC4=CC(=O)CC[C@]4(C)[C@H]3[C@@H](O)C[C@@]21C` [Hydrocortisone 17-butyrate, hydrocortisone 17-butyrate], in test [1], the “inhibition of ear swelling” value is recorded as 90%. For the same molecule, the “Inhibition of ear swelling (%)” value in test [2] (0.02 mg per application, group E, positive control) is 89*** %.
As for `CC(=O)N[C@H]1C(O)O[C@H](CO)[C@@H](O)[C@@H]1O` (stereo partly drawn) [N-acetylglucosamine], in test [2] (3.33 mg per application, group D), the “Inhibition of ear swelling (%)” value was 31* %. Besides, in test [2], the “inhibition of ear swelling, result in words” value is recorded as “only displayed a modest inhibition; also recorded: showed much lesser inhibition of ear swelling”.
In the case of `NC(=O)c1cccnc1` [Niacinamide], the “Inhibition of ear swelling (%)” value in test [2] (3.67 mg per application, group C) is recorded as 31** %. The “inhibition of ear swelling, result in words” value in test [2] was “only displayed a modest inhibition; also recorded: showed much lesser inhibition of ear swelling”.
